± gives the standard deviation of the averaged measurements.
Experiments:
Test in all cases: relative viability vs DMSO control (72 h) (fraction); higher = more viable cells
[1] = system: MES-SA
In short: (§1)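 Sarcoma cell lines were seeded in 384-well plates at densities chosen for 80–90% confluence, then 24 h later given 2.5 µl of serially diluted compound drawn from source plates spanning 10 mM to 0.0002 mM. They were held 72 h at 37 °C, 5% CO2, with 0.1% DMSO vehicle and a 5 µM positive control included. Relative viability was read with ATPLite as percent growth and averaged over up to triplicate wells. Rescaling placed full at 1 and none at 0.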

[2] = system: VA-ES-BJ
In short: as §1

[3] = system: A204
In short: as §1

[4] = system: SW982
In short: as §1

[5] = system: SK-ES-1
In short: as §1

C#Cc1cccc(Nc2ncnc3cc(OCCOC)c(OCCOC)cc23)c1 [Erlotinib]
relative viability
Details	[1]	[2]	[3]	[4]	[5]
0.00017 µM	0.95 ± 0.035	1.088 ± 0.0097	1.06 ± 0.077	1.06 ± 0.025	1.048 ± 0.0034
0.00051 µM	0.973 ± 0.035	1.08 ± 0.047	1.13 ± 0.042	1.06 ± 0.034	1.04 ± 0.071
0.00152 µM	0.979 ± 0.018	1.08 ± 0.027	1.09 ± 0.047	1.08 ± 0.046	1.08 ± 0.021
0.00457 µM	0.945 ± 0.014	1.08 ± 0.017	1.09 ± 0.094	1.08 ± 0.046	1.07 ± 0.037
0.01372 µM	0.96 ± 0.023	1.06 ± 0.019	1.07 ± 0.047	1.06 ± 0.025	1.09 ± 0.012
0.04115 µM	0.972 ± 0.024	1.08 ± 0.036	1.1 ± 0.042	1.08 ± 0.05	1.07 ± 0.037
0.1235 µM	0.959 ± 0.035	1.09 ± 0.013	1.09 ± 0.048	1.07 ± 0.06	1.05 ± 0.04
0.3704 µM	0.948 ± 0.04	1.03 ± 0.024	1.09 ± 0.071	1.07 ± 0.042	1.03 ± 0.036
1.111 µM	0.914 ± 0.026	1.01 ± 0.032	1.01 ± 0.011	0.9728 ± 0.0081	0.85 ± 0.034
3.333 µM	0.687 ± 0.03	0.888 ± 0.029	0.822 ± 0.069	0.689 ± 0.079	0.567 ± 0.032
10 µM	0.458 ± 0.017	0.642 ± 0.029	0.546 ± 0.035	0.466 ± 0.019	0.324 ± 0.021

Cc1ccc(NC(=O)c2ccc(CN3CCN(C)CC3)cc2)cc1Nc1nccc(-c2cccnc2)n1 [Imatinib]
relative viability
Details	[1]	[2]	[3]	[4]	[5]
0.00017 µM	0.966 ± 0.036	1.02 ± 0.034	1.01 ± 0.062	0.985 ± 0.036	0.937
0.00051 µM	0.988 ± 0.015	1.029 ± 0.0078	1.01 ± 0.035	0.972 ± 0.053	0.98 ± 0.052
0.00152 µM	0.992 ± 0.03	1.04 ± 0.014	0.993 ± 0.065	0.973 ± 0.029	0.9529 ± 0.0031
0.00457 µM	0.9838 ± 0.008	1.024 ± 0.01	0.99 ± 0.046	0.975 ± 0.022	0.9471 ± 0.0044
0.01372 µM	0.985 ± 0.021	1.01 ± 0.011	0.95 ± 0.061	0.97 ± 0.034	0.983 ± 0.015
0.04115 µM	0.9942 ± 0.0068	1.01 ± 0.035	0.87 ± 0.053	0.98 ± 0.043	0.9614 ± 0.0076
0.1235 µM	0.997 ± 0.01	1.01 ± 0.017	0.738 ± 0.099	0.963 ± 0.037	0.977 ± 0.04
0.3704 µM	1.02 ± 0.012	1.02 ± 0.032	0.491 ± 0.043	0.979 ± 0.025	0.97 ± 0.042
1.111 µM	1.01 ± 0.03	1.02 ± 0.028	0.389 ± 0.054	0.983 ± 0.019	0.957 ± 0.065
3.333 µM	0.905 ± 0.036	0.9831 ± 0.0072	0.312 ± 0.034	0.96 ± 0.047	0.841 ± 0.037
10 µM	0.658 ± 0.033	0.807 ± 0.015	0.196 ± 0.014	0.531 ± 0.025	0.62 ± 0.036

N#CCC1(n2cc(-c3ncnc4[nH]ccc34)cn2)CN(C2CCN(C(=O)c3ccnc(C(F)(F)F)c3F)CC2)C1 [Itacitinib]
relative viability
Details	[1]	[2]	[3]	[4]	[5]
0.00017 µM	0.921 ± 0.034	1.05 ± 0.066	1.02 ± 0.018	0.979 ± 0.048	1.04 ± 0.028
0.00051 µM	0.934 ± 0.013	1.03 ± 0.019	1.02 ± 0.012	0.996 ± 0.037	0.996 ± 0.068
0.00152 µM	0.919 ± 0.036	1.02 ± 0.032	1.03 ± 0.025	1.01 ± 0.02	0.977 ± 0.026
0.00457 µM	0.908 ± 0.0097	1.02 ± 0.025	1.02 ± 0.046	1 ± 0.051	1.05 ± 0.033
0.01372 µM	0.922 ± 0.026	1.01 ± 0.032	1.04 ± 0.036	1.02 ± 0.012	0.979 ± 0.031
0.04115 µM	0.894 ± 0.028	1 ± 0.027	1.03 ± 0.014	0.974 ± 0.0069	0.976 ± 0.049
0.1235 µM	0.909 ± 0.052	0.982 ± 0.026	1.01 ± 0.018	0.976 ± 0.025	1.01 ± 0.06
0.3704 µM	0.886 ± 0.029	0.97 ± 0.056	0.959 ± 0.013	0.956 ± 0.034	0.964 ± 0.035
1.111 µM	0.898 ± 0.02	0.972 ± 0.03	0.948 ± 0.066	0.983 ± 0.028	0.972 ± 0.043
3.333 µM	0.864 ± 0.027	0.942 ± 0.028	0.936 ± 0.034	0.93 ± 0.056	0.884 ± 0.039
10 µM	0.827 ± 0.034	0.859 ± 0.032	0.836 ± 0.036	0.928 ± 0.06	0.855 ± 0.039

N#Cc1ccnc(N2C(=O)CC[C@H]2C(=O)N(c2cncc(F)c2)[C@H](C(=O)NC2CC(F)(F)C2)c2ccccc2Cl)c1 [Ivosidenib]
relative viability
Details	[1]	[2]	[3]	[4]	[5]
0.00017 µM	0.905 ± 0.038	1.03 ± 0.018	1.07 ± 0.0082	1.02 ± 0.034	0.941 ± 0.033
0.00051 µM	0.943 ± 0.018	1.02 ± 0.029	1.03 ± 0.067	0.981 ± 0.038	0.962 ± 0.045
0.00152 µM	0.932 ± 0.024	1 ± 0.033	1.11 ± 0.015	0.987 ± 0.04	0.984 ± 0.05
0.00457 µM	0.935 ± 0.019	1.03 ± 0.028	1.06 ± 0.035	1 ± 0.014	1.02 ± 0.076
0.01372 µM	0.938 ± 0.0098	1.04 ± 0.013	1.04 ± 0.025	0.996 ± 0.025	0.988 ± 0.032
0.04115 µM	0.929 ± 0.02	1.02 ± 0.033	1.03 ± 0.061	1.01 ± 0.015	1.01 ± 0.063
0.1235 µM	0.933 ± 0.011	1.043 ± 0.0091	1.05 ± 0.059	0.984 ± 0.015	1 ± 0.047
0.3704 µM	0.981 ± 0.022	1.003 ± 0.0068	1.015 ± 0.0067	0.966 ± 0.03	0.965 ± 0.024
1.111 µM	0.976 ± 0.011	1.01 ± 0.051	1.06 ± 0.045	0.975 ± 0.019	1 ± 0.038
3.333 µM	0.925 ± 0.043	1.03 ± 0.016	1.03 ± 0.053	0.982 ± 0.017	0.978 ± 0.041
10 µM	0.8939 ± 0.0085	0.988 ± 0.042	0.971 ± 0.073	0.971 ± 0.01	0.983 ± 0.024

COc1cc2nccc(Oc3ccc(NC(=O)NC4CC4)c(Cl)c3)c2cc1C(N)=O [Lenvatinib]
relative viability
Details	[1]	[2]	[3]	[4]	[5]
0.00017 µM	1.01 ± 0.019	1.07 ± 0.011	1 ± 0.045	1 ± 0.052	0.985 ± 0.02
0.00051 µM	0.958 ± 0.026	1.06 ± 0.017	1.04 ± 0.068	0.993 ± 0.033	1.01 ± 0.05
0.00152 µM	0.971 ± 0.021	1.08 ± 0.021	1.03 ± 0.08	0.998 ± 0.017	0.9845 ± 0.0066
0.00457 µM	0.9651 ± 0.0046	1.1 ± 0.022	1.02 ± 0.023	0.9857 ± 0.0098	0.958 ± 0.065
0.01372 µM	0.942 ± 0.021	1.12 ± 0.015	0.79 ± 0.05	0.989 ± 0.033	0.979 ± 0.066
0.04115 µM	0.939 ± 0.02	1.11 ± 0.037	0.551 ± 0.04	0.99 ± 0.023	0.938 ± 0.026
0.1235 µM	0.964 ± 0.051	1.13 ± 0.082	0.406 ± 0.046	0.982 ± 0.036	0.911 ± 0.074
0.3704 µM	0.936 ± 0.022	1.13 ± 0.083	0.345 ± 0.0098	0.968 ± 0.035	0.881 ± 0.019
1.111 µM	0.765 ± 0.032	1.15 ± 0.043	0.267 ± 0.038	0.947 ± 0.034	0.791 ± 0.061
3.333 µM	0.597 ± 0.044	1.118 ± 0.0078	0.186 ± 0.0089	0.926 ± 0.018	0.689 ± 0.025
10 µM	0.454 ± 0.14	1.04 ± 0.068	0.167 ± 0.018	0.8573 ± 0.0049	0.593 ± 0.032

From the supplement of paper PMC10883282
